Experimental data published in patent US9278924B2, “5-nonyloxytryptamine and related intracellular PH acidifiers for the treatment and prevention of cancer” (THE JOHNS HOPKINS UNIVERSITY, priority 2011, dated 2016).
Where a name gives a salt, the structure may show the parent alone. The star is where a group is joined. Cbz = O=C(OCc1ccccc1)*; CH2F = FC*

Columns and labels:
[1] = test system: GBM-derived neurosphere cell lines; assay: MTT growth assay; type: cell-based; settings: 72 h, read-out: inhibition of growth (viable cell mass, MTT)
Protocol: FIG. 2 depicts MTT growth assays for neurospheres treated with 5-NOTO. Cells were plated in 96-multiwell plates and treated with either DM50 (Control •) or 5-NOTO (at 1 uM ▪ and 10 μM ▴). MTT reagent was added to indirectly measure viable cell mass at each time point. Absorbance was measured wt 490 nm using an Epoch Microplate Spectrophotometer (BioTek).
5-NOTO is a Potent Inhibitor of Cancer Cell Growth. To test the hypothesis that as a pH acidifier, 5-NOTO should reduce cell proliferation, we treated three independent GBM-derived neurosphere cell lines with DMSO (control), 1 μM, and 10 μM 5-NOTO for three days. Accumulation of viable cell mass was measured using MTT growth assay (Promega). Absorbance (A490) was measured using an Epoch Microplate Spectrophotometer (Biotek) at the indicated time points.

020913 neurospheres = assay: ATPlite luminescence assay of cellular ATP; type: cell-based; settings: 1 μM and 10 μM, 1 or 3 hours
Protocol: Cells were incubated for either 1 or 3 hours in the presence of DMSO (control) or 5-NOTO (1 μM and 10 μM), ATP levels were determined using ATPlite Luminescence Assay System (PerkinElmer) according to manufacturer instructions.
5-NOTO Induces Rapid Necrosis in GBM Neurospheres. One of the classical features of necrotic cells is rapid and significant drop in intracellular ATP levels. The effect of 5-NOTO on ATP release was assayed at 1 hr and 3 hr post-treatment as follows. Briefly, 020913 neurospheres were triturated to a single-cell suspension and 20,000 cells were plated per well. Cells were plated in triplicates for vehicle alone, 1 μM 5-NOTO, and 10 μM 5-NOTO. At each time point, 100 μl of ATPlite 1-step reagent (Perkin Elmer) was added to each well and incubated with shaking for 2 minutes. After dark adaptation for 10 minutes, the samples were read using a microplate reader (Perkin Elmer). Readings were averaged and the percent differences in ATP release between treated and vehicle alone were calculated (RLU). This experiment was performed in triplicate with similar results (FIG. 6).

GBM neurosphere lines = assay: cAMP GLO assay of cellular cAMP levels; type: cell-based; settings: three GBM neurosphere lines
Source text: In this assay cAMP levels are inversely correlated with luminescence (RLU). Cyanopindolol is a Gα antagonist and is required for detection of 5HTR1B activity. Sumatriptan, another 5HTR1B agonist (similar to 5-NOTO), and forskolin {a known Gα agonist) were used as controls.
The Serotonin Receptors 5HTR1B and 5HTR1A are Not the Target Of 5-NOTO Action in GBM. 5-NOTO is not an FDA approved drug but its biological target is known. 5-NOTO is a specific agonist for the 5HTR1B serotonin receptor (400 times more specific for 5HTR1B then for 5HTR1A). 5HTR1B (as well as other 5HTR1 isoforms) are heterotrimeric G-protein coupled receptors which interact with Gα an inhibitor of adenylate cyclase. Therefore, we sought to determine if treatment with 5-NOTO will result in decreased cellular cAMP levels as activation of Gα should inhibit adenylate cydase, the enzyme which catalyzes the conversion of ATP to cAMP. To this end, cells were treated with cyanopindolol, an antagonist of 5HTR1B, which should increase adenylate cyclase activity (if 5HTR1B is functional), and either 5-NOTO or sumatriptan, the latter being similar to 5-NOTO, activating both 5HTR1B and 5HTR1A. […] Importantly, sumatriptan also had no effect on cellular cAMP levels, strengthening the notion that 5HTR1B (and likely 5HTR1A) have very little to no effect on cellular cAMP levels in the GBM models.

[2] = test system: GBM-derived neurosphere line 020913; assay: Guava ViaCount viability assay; type: cell-based; settings: 48 h, read-out: percent viability
Protocol: (§1) Cells were plated in 24-well plates and treated with DMSO or t 10 μM 5-NOTO. 48 hours later, cell viability was determined using Guava PCA flow cytometer with Guava ViaCount reagent.
(§2) We next sought to examine if 5-NOTO is generally cytotoxic or if its cytotoxicity may be specific to some cancer types. To this end, we examined the apoptotic induction in a uveal melanoma cell line, OCM 1. Cells were treated for 48 hours with 10 μM of 5-NOTO followed by Viacount assay. 5-NOTO had no effect on viability of OCM1 as the percentage of viable cells remained greater than 90% (FIG. 8). In contrast, percent viability in 020913 neurospheres treated with 10 μM 5-NOTO was only 10%.

[3] = Guava ViaCount viability assay; type: cell-based; settings: human, uveal melanoma cell line OCM1, read-out: percentage of viable cells
Protocol: as §1, §2

040821 GBM neurospheres = assay: Annexin V apoptosis assay; type: cell-based; settings: 10 μM, 24 hours; DMSO 10-20%
Protocol: (§3) FIG. 4 depicts apoptosis analysis for GBM neurospheres treated with 5-NOTO for 24 hours. Cells were plated and then treated for 24 hours with DMSO (control), 1 μM and 10 μM 5-NOTO. Cells were then processed for Annexin V assay using the Nexin reagent (Millipore) and % Annexin positive cells was determined using flow cytometry.
(§4) 5-NOTO Induces Apoptosis in GBM Neurospheres. To ascertain that 5-NOTO induces apoptosis, cells were treated with DMSO (control), 1 μM, and 10 μM 5-NOTO for 24 hours at which point cells were processed for Annexin V apoptosis assay (Millipore), which is a simple and effective method to detect one of the earliest events in apoptosis, the externalization of phosphatidylserine in living cells. […] Higher levels of 5-NOTO (100 μM) eliminated the vast majority of viable cells (80-90%) 48 hours post treatment (Data not shown)).

040622 GBM neurospheres [4] = assay: Annexin V apoptosis assay; type: cell-based; settings: 10 μM, 24 hours; DMSO 10-20%
Protocol: as §3, §4

020913 GBM neurospheres = assay: Annexin V apoptosis assay; type: cell-based; settings: 10 μM, 24 hours; DMSO 10-20%
Protocol: as §3, §4

GBM neurospheres 040622 = assay: Necrosis by Nexin staining and flow cytometry, 90 minutes; type: cell-based; settings: 10 μM, DMSO 5%
Protocol: (§5) FIG. 9 depicts induction of necrotic cell death by 5-NOTO. GBM neurospheres 020913 and 040622 and normal neural stem cells immortalized with v-Myc (VNSC) were treated with DMSO (control, black bars) or with 10 μM 5-NOTO (red bars). Cells were treated for 90 minutes and then processed for viability assay using Nexin staining % Necrosis was determined by flow cytometry. […] VNSCs on the other hand were completely resistant to 5-NOTO showing 26% and 25% in DMSO and 5-NOTO treatments, respectively.
(§6) Induction of Necrotic Cell Death by 5-NOTO. GBM neurospheres 020913 and 040622 and normal neural stem cells immortalized with v-Myc (VNSC) were treated with DMSO (control, black bars) or with 10 μM 5-NOTO. Cells were treated for 90 minutes and then processed for viability assay using Nexin staining % Necrosis was determined by flow cytometry. […] VNSCs on the other hand were completely resistant to 5-NOTO showing 26% and 25% in DMSO and 5-NOTO treatments, respectively.

GBM neurospheres 020913 = assay: as above; type: cell-based; settings: 10 μM, DMSO 13%
Protocol: as §5, §6

[5] = test system: normal neural stem cells immortalized with v-Myc (VNSC); assay: as above; type: cell-based; settings: 10 μM, DMSO 26%
Protocol: as §5, §6

GBM neurospheres [6] = assay: Elimination of viable cells at high 5-NOTO level; type: cell-based; settings: 48 h, read-out: viable cells eliminated
Protocol: as §4

GBM neurospheres [7] = assay: Guava ViaCount cell viability, IC50 determination; type: cell-based; settings: 48 hours, all neurospheres tested; read-out: IC50 (concentration required to kill 50% of the cells)
Protocol: Cells were treated for 48 hours with various concentrations of 5-NOTO and incubated for 48 hours in humidified incubator as which point, Guava Viacount reagent (Millipore) was used to assess the percentage of viable cells remaining in each treatment well. IC50 (concentration of drug required for 50% reduction in cell viability) was calculated using Graphpad 5.0 software package. The respective IC50 is indicated for each neurosphere line.
Determination of cytotoxic effects. We next sought to determine the concentration of 5-NOTO which is required to kill 50% of the cells (e.g. IC50). Cells were plated in 24-well plates at 25,000 cells/well and treated for 48 hours with either DMSO (control) or various concentration of 5-NOTO (FIG. 2). Guava PCA flow cytometry system was used with the Guava Viawunt reagent (Millipore) to determine cell viability. Data was analyzed using GraphPad 5.0 software package. IC50 was calculated using non linear regression.

[8] = target: 5HTR1B serotonin receptor (Homo sapiens, UniProt P28222); settings: agonist; cited from earlier work
Sequence of 5HTR1B serotonin receptor (P28222 whole entry): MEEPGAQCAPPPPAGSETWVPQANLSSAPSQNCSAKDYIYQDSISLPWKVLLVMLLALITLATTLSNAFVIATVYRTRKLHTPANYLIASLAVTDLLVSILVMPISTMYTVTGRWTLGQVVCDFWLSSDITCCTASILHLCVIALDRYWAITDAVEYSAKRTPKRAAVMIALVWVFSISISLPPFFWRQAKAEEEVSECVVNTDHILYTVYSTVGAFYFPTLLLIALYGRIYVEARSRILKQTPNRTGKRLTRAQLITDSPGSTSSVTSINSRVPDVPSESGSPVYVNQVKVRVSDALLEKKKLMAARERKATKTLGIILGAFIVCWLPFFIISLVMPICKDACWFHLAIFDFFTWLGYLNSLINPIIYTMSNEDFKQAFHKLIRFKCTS

040622 GBM neurospheres [9] = assay: Apoptosis/necrosis evaluation with Guava Nexin reagent, 30 minutes; type: cell-based
Protocol: Cells were treated with DMSO (control), the multi caspase inhibitor Z-VAD-FMK (20 μM), 5-NOTO (10 μM) or the latter two in combination. Guava Nexin assay reagent was used to determine Viable (black), apoptotic (yellow), and necrotic/apoptotic (Red) cell fractions.
To test necrotic cell death directly, cells were treated with DMSO (control) or 10 μM 5-NOTO for 30 minutes followed by apoptosis/necrosis evaluation using Guava PCA flow cytometer and Nexin reagent (Millipore). […] Similar results were documented for 020913 and 040821 neurospheres (not shown).

CCCCCCCCCOc1ccc2[nH]cc(CCN)c2c1 [5-NOTO, 5-nonyloxytryptamine oxalate]
cytotoxicity at 10 µM [1]: > 90%
effect on cellular ATP levels (020913 neurospheres): depletes cellular ATP levels in a time and dose dependent fashion
effect on cellular cAMP levels (GBM neurosphere lines): not affected
viability at 10 µM [2]: 10%
viability at 48 h, 10 µM [3]: > 90%
apoptotic cell fraction (Annexin V positive) (040821 GBM neurospheres): > 70%
apoptotic cell fraction (Annexin V positive) (040622 GBM neurospheres [4]): more than 60%
apoptotic cell fraction (Annexin V positive) (020913 GBM neurospheres): > 80%
% necrosis (GBM neurospheres 040622): 65%
% necrosis (GBM neurospheres 020913): 56%
% necrosis [5]: 25%
cytotoxicity at 100 µM (GBM neurospheres [6]): 80 to 90%
IC50 (GBM neurospheres [7]): ~10 µM
specificity for 5HTR1B over 5HTR1A [8]: 400 times
necrotic/dead fraction (040622 GBM neurospheres [9]; 10 μM, 30 minutes, DMSO 15.83%): 54.17%

CC(C)(C)NCC(O)COc1cccc2[nH]c(C#N)cc12 (stereo not drawn) [Cyanopindolol, cyanopindolol]
effect on cellular cAMP levels (GBM neurosphere lines): not affected

CNS(=O)(=O)Cc1ccc2[nH]cc(CCN(C)C)c2c1 [sumatriptan]
effect on cellular cAMP levels (GBM neurosphere lines): no effect

Cbz-Val-Ala-Asp-CH2F [reference compound]
effect on 5-NOTO-induced necrotic/dead cell fraction (040622 GBM neurospheres [9]; pre-treatment with 20 μM Z-VAD-FMK, then 10 μM 5-NOTO): no effect
